# Measurements taken from patent US7713994B2 (Wyeth LLC, priority 2005, dated 2010).
# Read-outs that look alike come from different tables or passages of the source.
# What was measured:
# [1] = target: T1, cyclin D1/cdk 4 enzyme (Homo sapiens, UniProt P11802); assay: CDK4 ELISA kinase assay (phospho-Rb ser 795 detection); type: biochemical
# T1 construct: made in house; host or cells: Sf9 insect cells, recombinant baculovirus
# Method in brief: (§1)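 Partially purified Sf9-expressed cyclin D1/CDK4, cyclin E/CDK2 or cyclin B/CDK1 phosphorylated plate-bound GST-Rb C-terminal fragment with 200 μM ATP at 30° C for 1 h.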
# [2] = target: T2, cyclin E/CDK2 enzyme (Homo sapiens, UniProt P24941); assay: CDK2 ELISA kinase assay (phospho-Rb ser 795 detection); type: biochemical
# T2 construct: made in house; host or cells: Sf9 insect cells, recombinant baculovirus
# Method in brief: as §1
# [3] = target: T3, cyclin B/CDK1 enzyme (Homo sapiens, UniProt P06493); assay: CDK1 ELISA kinase assay (phospho-Rb ser 795 detection); type: biochemical
# T3 construct: purchased New England BioLabs; host or cells: Sf9 insect cells, recombinant baculovirus
# Method in brief: as §1
# [4] = test system: BT474; assay: Cytotoxicity assay (SRB), BT474; type: cell-based
# Method in brief: (§2)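 Overnight-seeded monolayers (4000–12000 cells/well by line) receive compound in 5% FBS medium at 37 °C, 7% CO2. After 3 d, or 6 d for BT474, cellular protein is fixed with cold TCA, stained with SRB and read at 540 nm against untreated wells.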
# [5] = test system: HCT-116; assay: Cytotoxicity assay (SRB), HCT-116; type: cell-based; details: Homo sapiens, HCT-116, 72 h, HCT116 cells, SRB, read-out: In Vitro Cellular Activity IC50 HCT116
# Method in brief: as §2
# [6] = test system: LoVo; assay: Cytotoxicity assay (SRB), LoVo; type: cell-based; details: Homo sapiens, LoVo, 72 h, LoVo cells, SRB, read-out: In Vitro Cellular Activity IC50 LOVO
# Method in brief: as §2
# [7] = test system: MCF-7; assay: Cytotoxicity assay (SRB), MCF-7; type: cell-based; details: Homo sapiens, MCF7, 72 h, MCF-7 cells, SRB, read-out: In Vitro Cellular Activity IC50 MCF-7
# Method in brief: as §2
# [8] = In Vitro Enzyme Assays, 200 μM ATP, read-out: CDK4 IC50
# [9] = In Vitro Enzyme Assays, read-out: CDK2 IC50
# [10] = In Vitro Enzyme Assays, read-out: CDK1 IC50
# [11] = Homo sapiens, BT-474, 144 h, BT474 cells, 6 days, SRB; read-out: In Vitro Cellular Activity IC50 BT474
# [12] = Homo sapiens, BT-474, 144 h, BT474 cells, SRB, 6 days; read-out: In Vitro Cellular Activity IC50 BT474
# T1 sequence (P11802 whole entry, species assumed): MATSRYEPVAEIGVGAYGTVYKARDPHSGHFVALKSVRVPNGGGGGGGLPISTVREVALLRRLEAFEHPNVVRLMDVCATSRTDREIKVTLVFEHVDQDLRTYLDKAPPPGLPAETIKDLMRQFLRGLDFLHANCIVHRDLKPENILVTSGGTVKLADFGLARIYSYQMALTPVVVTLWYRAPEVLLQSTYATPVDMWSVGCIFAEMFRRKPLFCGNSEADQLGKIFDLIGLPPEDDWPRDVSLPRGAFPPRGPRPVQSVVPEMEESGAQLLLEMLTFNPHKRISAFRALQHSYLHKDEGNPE
# T1 sequence (P24385 whole entry partner, species assumed): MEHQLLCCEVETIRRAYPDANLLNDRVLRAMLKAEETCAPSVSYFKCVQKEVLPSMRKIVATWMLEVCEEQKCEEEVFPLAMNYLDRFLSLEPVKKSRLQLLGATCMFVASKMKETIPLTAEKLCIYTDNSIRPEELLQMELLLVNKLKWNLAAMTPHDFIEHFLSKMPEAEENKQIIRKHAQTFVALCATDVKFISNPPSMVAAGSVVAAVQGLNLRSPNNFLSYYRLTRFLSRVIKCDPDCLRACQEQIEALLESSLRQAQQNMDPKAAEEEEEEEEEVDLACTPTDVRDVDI
# T3 sequence (P06493 whole entry): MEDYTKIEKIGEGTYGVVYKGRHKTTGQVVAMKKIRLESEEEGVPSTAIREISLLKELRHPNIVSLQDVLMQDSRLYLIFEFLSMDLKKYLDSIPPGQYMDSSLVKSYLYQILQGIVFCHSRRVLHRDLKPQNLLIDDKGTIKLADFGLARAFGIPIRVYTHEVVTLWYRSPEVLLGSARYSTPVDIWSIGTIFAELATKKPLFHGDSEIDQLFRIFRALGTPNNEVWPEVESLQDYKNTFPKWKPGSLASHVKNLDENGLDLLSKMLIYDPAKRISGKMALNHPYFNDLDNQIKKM
# T3 sequence (P14635 whole entry partner): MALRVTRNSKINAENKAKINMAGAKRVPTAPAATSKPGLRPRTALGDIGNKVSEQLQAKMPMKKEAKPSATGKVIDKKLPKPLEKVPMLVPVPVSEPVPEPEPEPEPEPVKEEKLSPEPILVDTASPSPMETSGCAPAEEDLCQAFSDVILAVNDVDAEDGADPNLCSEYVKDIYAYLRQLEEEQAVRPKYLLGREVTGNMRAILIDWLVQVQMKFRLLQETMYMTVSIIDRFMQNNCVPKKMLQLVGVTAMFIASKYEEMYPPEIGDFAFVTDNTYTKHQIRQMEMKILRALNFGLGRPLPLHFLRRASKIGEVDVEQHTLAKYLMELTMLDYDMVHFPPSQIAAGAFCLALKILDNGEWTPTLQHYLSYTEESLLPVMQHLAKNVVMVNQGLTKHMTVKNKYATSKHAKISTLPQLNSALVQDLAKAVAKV
Compound,"IC50 [1, 8] [nM]","IC50 [2, 9] [nM]","IC50 [3, 10] [nM]","IC50 [4, 11] [nM]",IC50 ([5]; 3 days) [nM],IC50 ([6]; 3 days) [nM],IC50 ([7]; 3 days) [nM],melting point,"IC50 [4, 12] [nM]",IC50 ([5]; three days) [nM],IC50 ([6]; three days) [nM],IC50 ([7]; three days) [nM],"IC50 ([1]; In Vitro Enzyme Assay, cyclin D1/cdk 4, read-out: CDK4 IC50) [nM]","IC50 ([2]; In Vitro Enzyme Assay, cyclin E/CDK2, read-out: CDK2 IC50) [nM]","IC50 ([3]; In Vitro Enzyme Assay, cyclin B/CDK1, read-out: CDK1 IC50) [nM]"
"COC1CCN(Cc2ccc(N/C=C3\C(=O)NC(=O)c4ccc(-c5ccc(F)cc5)cc43)cc2)CC1 [Example 395, (4Z)-6-(4-Fluorophenyl)-4-[({4-[(4-methoxypiperidin-1-yl)methyl]phenyl}amino)methylene]isoquinoline-1,3(2H,4H)-dione]",140,> 50000,> 50000,1490,2300,2800,1400,188 to 189 °C,–,–,–,–,–,–,–
COCCOc1ccc(CN/C=C2\C(=O)NC(=O)c3ccc(Br)cc32)cc1O [Example 158],40,> 50000,> 50000,–,–,–,–,179 to 180 °C,28000,32000,30000,> 50000,–,–,–
"O=C1NC(=O)c2ccc(Br)cc2/C1=C/NCc1ccc(NC(=O)C(F)(F)F)c(O)c1 [Example 218, N-[4-({[(Z)-(6-Bromo-1,3-dioxo-2,3-dihydroisoquinolin-4(1H)-′ylidene)methyl]amino}methyl)-2-hydroxyphenyl]-2,2,2-trifluoroacetamide]",150,> 50000,> 50000,–,–,–,–,278 to 279 °C,2600,3300,4500,19000,–,–,–
"CN(C)C/C=C/C(=O)Nc1ccc(CN/C=C2\C(=O)NC(=O)c3ccc(I)cc32)cc1O [Example 359, (2E)-4-(Dimethylamino)-N-[2-hydroxy-4-({[(Z)-(6-iodo-1,3-dioxo-2,3-dihydroisoquinolin-4(1H)-ylidene)methyl]amino}methyl)phenyl]but-2-enamide]",20,260,1500,–,–,–,–,185 to 186 °C,120,230,340,400,–,–,–
"O=C1NC(=O)c2ccc(/C=C/CCCCl)cc2/C1=C/Nc1ccc(CN2CCCCC2)cc1 [Example 112, (4Z)-6-[(1E)-5-Chloropent-1-enyl]-4-({[4-(piperidin-1-ylmethyl)phenyl]amino}methylene)isoquinoline-1,3(2H,4H)-dione]",2900,> 50000,3800,–,–,–,–,268 to 269 °C,2300,980,1900,3300,–,–,–
"CN1CCN(c2ccc(CN/C=C3\C(=O)NC(=O)c4ccc(I)cc43)cc2O)CC1 [Example 521, (4Z)-4-({[3-Hydroxy-4-(4-methylpiperazin-1-yl)benzyl]amino}methylene)-6-iodoisoquinoline-1,3(2H,4H)-dione]",–,–,–,7550,2570,5440,2600,180 to 181 °C,–,–,–,–,20,560,2600
O=C1NC(=O)c2ccc(I)cc2/C1=C/NCc1ccc(OC(F)F)c(O)c1 [Example 267],8,1700,16500,–,–,–,–,254 to 255 °C,3500,3700,3700,4800,–,–,–
"CCCOc1ccc(CNC=C2C(=O)NC(=O)c3ccc(-n4cccc4)cc32)cc1O [Example 278, 4-[(3-Hydroxy-4-propoxy-benzylamino)-methylene]-6-pyrrol-1-yl-4H-isoquinoline-1,3-dione]",30,> 50000,> 50000,–,–,–,–,215 to 216 °C (dec.),5000,2900,4700,6300,–,–,–
"CN1CCN(c2ccc(N/C=C3\C(=O)NC(=O)c4ccc(Br)cc43)cn2)CC1 [Example 250, (4Z)-6-Bromo-4-({[6-(4-methylpiperazin-1-yl)pyridin-3-′yl]amino}methylene)isoquinoline-1,3(2H,4H)-dione]",2800,> 50000,> 50000,–,–,–,–,265 to 266 °C,7600,6200,7100,1600,–,–,–
